Measurements reported in ChEMBL document CHEMBL1201862, “PubChem BioAssay data set” (2004).
Calls of active or inactive are those of the source.

Experiments:
[1] = biological target: Solute carrier family 12 member 2/member 5 (Homo sapiens, UniProt P55011+Q9H2X9); experiment: KCC2 and NKCC1 inhibition by rubidium flux, cell-based, NKCC1 counter-screen (AID 1734); assay type: functional, HEK293
[2] = HIV-1 Vif–A3G interaction blockers – biochemical, TR-FRET, GST-Vif 1-94, biotin-A3G peptide, dose response retest, primary screen (AID 1117319); assay type: functional;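 further: TR-FRET signal of purified GST-Vif binding a biotinylated A3G peptide; inhibitors lower the FRET signal by blocking Vif and A3G binding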
[3] = biological target: Peroxisome proliferator-activated receptor gamma/Nuclear receptor corepressor 2 (Homo sapiens, UniProt P37231+Q9Y618); experiment: Counterscreen for NR2E3 inverse agonists: TR-FRET-based biochemical high throughput dose response assay to identify inverse agonists of the interaction between peroxisome proliferator-activated receptor gamma (PPARg) and nuclear receptor co-repressor 2 (NCOR2).; assay type: functional
[4] = biological target: Photoreceptor-specific nuclear receptor (Homo sapiens, UniProt Q9Y5X4); experiment: ligands suppressing NR2E3 nuclear receptor activity – biochemical, TR-FRET, dose response (AID 463256); assay type: functional
Cytochrome P450 2C19 [5] = biological target: T1, Cytochrome P450 2C19 (Homo sapiens, UniProt P33261); experiment: Cytochrome panel assay with activity outcomes. Panel member name: p450-cyp2c19 Compounds with AC50 equal or less than 10 uM are considered active; assay type: functional
[6] = biological target: ADP-ribosylation factor GTPase-activating protein 1 (Rattus norvegicus, UniProt Q62848); experiment: Fluorescence polarization-based biochemical high throughput dose response screening assay to identify inhibitors of ADP-ribosylation factor GTPase activating protein 1 (ARFGAP1).; assay type: functional
Cytochrome P450 2C9 = Cytochrome P450 2C9 (Homo sapiens, UniProt P11712)
Cytochrome P450 2C19 [7] = biological target: T1, Cytochrome P450 2C19; experiment: qHTS Assay for Inhibitors and Substrates of Cytochrome P450 2C19. [Related pubchem assays: 410 ]; assay type: ADME; details: read-out: Potency
[8] = Luminescent dose response cell-based high throughput screening assay for inhibitors of the Janus kinase 2 mutant JAK2V617F. [Related pubchem assays: 1446 (Primary screen.), 1521 (Confirmation assay.), 1486 (Counter screen.)]; assay type: functional
[9] = biological target: Alkaline phosphatase, placental type (Homo sapiens, UniProt P05187); experiment: human placental alkaline phosphatase inhibition – biochemical, luminescence, confirmation (AID 1512); assay type: functional
[10] = biological target: T2, Alkaline phosphatase, tissue-nonspecific isozyme (Homo sapiens, UniProt P05186); experiment: potency against alkaline phosphatase TNAP – biochemical, luminescent, dose response, SAR follow-up (AID 1056)
T2 sequence (P05186 whole entry): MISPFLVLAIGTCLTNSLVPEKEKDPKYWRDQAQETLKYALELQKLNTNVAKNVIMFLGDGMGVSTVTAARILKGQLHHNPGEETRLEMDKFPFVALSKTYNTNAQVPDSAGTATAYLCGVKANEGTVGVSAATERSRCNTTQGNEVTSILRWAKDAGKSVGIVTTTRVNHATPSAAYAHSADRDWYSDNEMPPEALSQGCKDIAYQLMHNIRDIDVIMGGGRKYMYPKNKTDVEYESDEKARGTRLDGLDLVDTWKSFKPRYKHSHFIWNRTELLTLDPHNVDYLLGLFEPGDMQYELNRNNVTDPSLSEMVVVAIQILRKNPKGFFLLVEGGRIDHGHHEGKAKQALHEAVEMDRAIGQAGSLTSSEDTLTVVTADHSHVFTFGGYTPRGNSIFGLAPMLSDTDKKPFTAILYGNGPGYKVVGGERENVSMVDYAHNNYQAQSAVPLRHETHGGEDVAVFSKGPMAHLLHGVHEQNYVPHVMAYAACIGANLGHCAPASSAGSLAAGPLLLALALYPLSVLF

[11] = biological target: T3, Rac GTPase-activating protein 1 (Homo sapiens, UniProt Q9H0H5); experiment: blockers of MgcRacGAP-driven Rac1 GTP hydrolysis – biochemical, ADP Hunter fluorescence, primary and confirmatory, confirmation (AID 624330); assay type: functional
T3 sequence (Q9H0H5 whole entry): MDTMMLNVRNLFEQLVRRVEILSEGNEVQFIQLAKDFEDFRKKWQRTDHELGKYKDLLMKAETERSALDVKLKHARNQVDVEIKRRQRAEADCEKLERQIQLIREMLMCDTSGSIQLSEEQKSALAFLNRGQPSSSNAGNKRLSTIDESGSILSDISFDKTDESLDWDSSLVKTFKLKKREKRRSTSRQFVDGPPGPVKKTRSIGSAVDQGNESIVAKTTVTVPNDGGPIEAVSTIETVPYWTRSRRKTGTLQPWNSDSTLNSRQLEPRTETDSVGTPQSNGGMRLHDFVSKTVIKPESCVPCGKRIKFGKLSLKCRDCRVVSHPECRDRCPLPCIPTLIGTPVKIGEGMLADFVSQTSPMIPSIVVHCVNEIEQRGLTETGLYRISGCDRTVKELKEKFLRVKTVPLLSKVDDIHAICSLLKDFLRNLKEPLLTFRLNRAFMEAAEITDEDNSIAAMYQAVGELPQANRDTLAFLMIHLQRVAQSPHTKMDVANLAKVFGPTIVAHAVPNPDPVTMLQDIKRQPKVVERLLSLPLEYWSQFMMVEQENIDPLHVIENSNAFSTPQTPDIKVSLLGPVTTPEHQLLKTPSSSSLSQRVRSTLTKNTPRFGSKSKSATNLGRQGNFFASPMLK

[12] = A Cell Based Secondary Assay To Explore Cytotoxicity of Compounds that Sensitize Mycobacterium Tuberculosis to Beta-Lactam Antibiotics.; assay type: functional
[13] = viability loss in Vero cells – cytotoxicity control for Vif-APOBEC3G degradation inhibitor project, dose response (AID 1117358); assay type: functional; details: Vero
[14] = general mammalian cell viability loss – activator set, cherry-pick, cytotoxicity control for miR-122 modulator project, dose response (AID 720690); assay type: functional, cell-based;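 further: HEK293T human cells scored for general mammalian cytotoxicity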
[15] = viability loss in HEK293 kidney cells – cell-based, cherry-picks, set 5, cytotoxicity control, dose response (AID 1053117); assay type: functional
[16] = inhibition of fibronectin matrix deposition – AH1F cells, Alexa488-fibronectin fluorescence, cherry-pick, set 2, dose response (AID 1117283); assay type: functional, cell-based
Phospholipase D2 [17] = biological target: T4, Phospholipase D2 (Homo sapiens, UniProt O14939); experiment: PLD2 Cellular Concentration Response Study.; assay type: functional
Phospholipase D2 [18] = biological target: T4, Phospholipase D2; experiment: Discovery of PLD2 inhibitors using the Purified Enzyme Concentration Response Assay.; assay type: functional
Phospholipase D1 [19] = biological target: T5, Phospholipase D1 (Homo sapiens, UniProt Q13393); experiment: PLD1 Cellular Concentration Response Study.; assay type: functional
T5 sequence (Q13393 whole entry): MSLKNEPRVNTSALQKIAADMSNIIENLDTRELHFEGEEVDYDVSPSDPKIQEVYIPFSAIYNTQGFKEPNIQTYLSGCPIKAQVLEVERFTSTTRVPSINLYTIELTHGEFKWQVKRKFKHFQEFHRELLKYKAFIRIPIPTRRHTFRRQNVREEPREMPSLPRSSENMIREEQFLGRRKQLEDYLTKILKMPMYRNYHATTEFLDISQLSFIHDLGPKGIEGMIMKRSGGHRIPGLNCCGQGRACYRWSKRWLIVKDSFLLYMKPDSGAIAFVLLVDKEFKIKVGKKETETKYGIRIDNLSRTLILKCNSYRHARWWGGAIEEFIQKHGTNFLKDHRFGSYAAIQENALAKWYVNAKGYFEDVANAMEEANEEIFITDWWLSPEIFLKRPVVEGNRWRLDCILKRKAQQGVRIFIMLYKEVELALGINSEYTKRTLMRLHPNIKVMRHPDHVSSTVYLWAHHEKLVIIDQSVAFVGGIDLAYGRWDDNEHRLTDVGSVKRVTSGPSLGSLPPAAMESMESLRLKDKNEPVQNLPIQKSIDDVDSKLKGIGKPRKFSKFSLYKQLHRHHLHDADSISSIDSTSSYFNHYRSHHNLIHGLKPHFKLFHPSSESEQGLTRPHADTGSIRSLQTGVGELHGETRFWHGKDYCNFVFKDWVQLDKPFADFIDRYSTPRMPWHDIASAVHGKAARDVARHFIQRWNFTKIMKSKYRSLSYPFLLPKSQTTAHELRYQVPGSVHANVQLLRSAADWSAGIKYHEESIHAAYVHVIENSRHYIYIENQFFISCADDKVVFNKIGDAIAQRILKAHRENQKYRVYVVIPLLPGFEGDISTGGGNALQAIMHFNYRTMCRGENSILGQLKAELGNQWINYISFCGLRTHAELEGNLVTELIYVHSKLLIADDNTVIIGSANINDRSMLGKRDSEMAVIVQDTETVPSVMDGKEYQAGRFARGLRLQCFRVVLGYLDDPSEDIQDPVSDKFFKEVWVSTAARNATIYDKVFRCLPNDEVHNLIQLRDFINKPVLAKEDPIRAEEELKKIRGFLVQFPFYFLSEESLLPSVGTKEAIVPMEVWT

Phospholipase D1 [20] = biological target: T5, Phospholipase D1; experiment: phospholipase D1 enzyme inhibition confirmation – biochemical, concentration response (AID 743390); assay type: functional
[21] = antimalarial activity against Dd2 parasites – SYBR Green fluorescence, erythrocytes, dry powder, set 2, dose response (AID 1159574); assay type: functional, cell-based
[22] = antifungal growth inhibition under osmotic support – sorbitol, alamar blue, dry powder, set 3, mechanism study for C. neoformans lysis project, dose response (AID 743304); assay type: functional, organism-based
cells = details: HEK293
[23] = microbe, parasite or virus in culture; assay type: functional; details: Mycobacterium tuberculosis
[24] = Luminescence Cell-Based Dose Retest to Confirm Inhibitors of Cancer Stem Cells. [Related pubchem assays (depositor defined):AID2717, AID2721]; assay type: functional; details: Homo sapiens
[25] = CellTiter-Glo luminescence survival assay, SW480 colon tumor line, concentration-response curve, half-maximal inhibitory concentration (AID 1117338); assay type: functional
[26] = RKO cell viability reduction, dose response, CellTiter-Glo luminescence (AID 1117322); assay type: functional
[27] = cytotoxicity toward HCT116 cells – cell-based, CellTiter-Glo luminescence, IC50, dose response (AID 1117332); assay type: functional; details: HCT-116
[28] = SNU-C1 cell viability reduction, dose response, CellTiter-Glo luminescence (AID 1117323); assay type: functional, cell-based
[29] = cytotoxicity toward Colo320 cells – cell-based, CellTiter-Glo luminescence, IC50, dose response (AID 1117334); assay type: functional; details: COLO 320
[30] = cytotoxicity toward HT-29 cells – cell-based, CellTiter-Glo luminescence, IC50, dose response (AID 1117330); assay type: functional
[31] = Reduced DLD-1 viability, concentration-response, CellTiter-Glo luminescence (AID 1117352); assay type: functional
[32] = HCT116 cell viability decrease, GSK3B pretreatment – CellTiter-Glo, IC50, dose response (AID 1117339); assay type: functional; details: HCT-116

T4 sequence (O14939 whole entry): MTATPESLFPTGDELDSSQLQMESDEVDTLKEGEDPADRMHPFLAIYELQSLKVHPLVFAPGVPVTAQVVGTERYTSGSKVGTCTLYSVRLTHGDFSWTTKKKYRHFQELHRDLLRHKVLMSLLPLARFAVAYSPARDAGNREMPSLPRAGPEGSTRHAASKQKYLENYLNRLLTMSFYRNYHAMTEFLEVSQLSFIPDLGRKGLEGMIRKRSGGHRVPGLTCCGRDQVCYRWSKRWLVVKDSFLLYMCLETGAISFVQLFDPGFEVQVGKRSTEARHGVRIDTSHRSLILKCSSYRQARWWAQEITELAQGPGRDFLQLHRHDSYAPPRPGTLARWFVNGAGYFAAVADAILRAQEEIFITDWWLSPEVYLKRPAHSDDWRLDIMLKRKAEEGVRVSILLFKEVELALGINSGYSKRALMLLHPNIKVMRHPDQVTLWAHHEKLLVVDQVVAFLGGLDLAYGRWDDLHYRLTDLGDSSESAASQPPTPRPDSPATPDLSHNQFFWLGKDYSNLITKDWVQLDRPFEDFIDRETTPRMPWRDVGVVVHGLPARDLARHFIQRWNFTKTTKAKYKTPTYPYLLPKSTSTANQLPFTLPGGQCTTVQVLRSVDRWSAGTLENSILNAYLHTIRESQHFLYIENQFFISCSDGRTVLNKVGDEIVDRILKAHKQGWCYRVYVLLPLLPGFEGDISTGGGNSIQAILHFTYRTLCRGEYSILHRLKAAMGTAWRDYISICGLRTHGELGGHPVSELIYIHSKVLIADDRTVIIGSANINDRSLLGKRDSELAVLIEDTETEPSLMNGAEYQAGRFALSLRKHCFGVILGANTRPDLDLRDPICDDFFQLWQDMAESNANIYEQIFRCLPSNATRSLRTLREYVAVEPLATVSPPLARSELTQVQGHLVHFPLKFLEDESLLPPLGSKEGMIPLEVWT
T1 sequence (P33261 whole entry): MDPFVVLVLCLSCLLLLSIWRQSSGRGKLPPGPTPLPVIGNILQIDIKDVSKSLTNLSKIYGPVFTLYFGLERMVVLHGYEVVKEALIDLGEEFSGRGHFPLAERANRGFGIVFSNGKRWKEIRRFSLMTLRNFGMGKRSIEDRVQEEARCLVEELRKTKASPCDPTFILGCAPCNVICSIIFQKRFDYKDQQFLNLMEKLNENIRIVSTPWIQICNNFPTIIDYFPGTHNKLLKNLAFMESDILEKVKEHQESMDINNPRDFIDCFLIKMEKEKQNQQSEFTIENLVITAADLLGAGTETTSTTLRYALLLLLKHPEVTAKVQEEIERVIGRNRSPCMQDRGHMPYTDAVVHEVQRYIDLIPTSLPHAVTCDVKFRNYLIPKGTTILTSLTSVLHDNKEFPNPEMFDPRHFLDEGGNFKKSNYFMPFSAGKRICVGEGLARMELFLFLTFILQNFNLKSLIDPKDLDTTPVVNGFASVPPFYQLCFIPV
Sequence of Photoreceptor-specific nuclear receptor (Q9Y5X4 whole entry): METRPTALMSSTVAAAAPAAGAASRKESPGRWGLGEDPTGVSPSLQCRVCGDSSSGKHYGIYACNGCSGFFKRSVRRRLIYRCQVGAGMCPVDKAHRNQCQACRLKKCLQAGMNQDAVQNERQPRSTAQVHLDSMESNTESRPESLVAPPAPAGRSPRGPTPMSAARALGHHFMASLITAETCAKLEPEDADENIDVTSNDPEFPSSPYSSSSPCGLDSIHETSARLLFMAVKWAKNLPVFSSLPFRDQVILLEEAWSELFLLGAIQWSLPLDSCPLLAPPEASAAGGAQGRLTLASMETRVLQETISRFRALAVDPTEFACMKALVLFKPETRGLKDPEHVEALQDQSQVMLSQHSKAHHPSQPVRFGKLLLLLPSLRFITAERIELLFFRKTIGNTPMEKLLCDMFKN
Sequence of ADP-ribosylation factor GTPase-activating protein 1 (Q62848 whole entry): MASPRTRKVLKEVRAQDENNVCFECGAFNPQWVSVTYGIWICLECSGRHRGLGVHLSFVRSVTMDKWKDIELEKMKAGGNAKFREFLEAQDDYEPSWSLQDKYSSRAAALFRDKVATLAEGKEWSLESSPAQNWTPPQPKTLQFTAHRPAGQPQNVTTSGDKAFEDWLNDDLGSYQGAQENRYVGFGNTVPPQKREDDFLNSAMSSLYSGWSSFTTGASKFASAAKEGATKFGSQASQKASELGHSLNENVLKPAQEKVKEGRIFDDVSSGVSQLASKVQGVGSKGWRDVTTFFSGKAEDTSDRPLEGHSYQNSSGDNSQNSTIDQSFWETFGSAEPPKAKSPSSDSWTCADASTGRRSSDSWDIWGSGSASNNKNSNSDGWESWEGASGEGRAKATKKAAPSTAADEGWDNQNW
Sequence of Alkaline phosphatase, placental type (P05187 whole entry): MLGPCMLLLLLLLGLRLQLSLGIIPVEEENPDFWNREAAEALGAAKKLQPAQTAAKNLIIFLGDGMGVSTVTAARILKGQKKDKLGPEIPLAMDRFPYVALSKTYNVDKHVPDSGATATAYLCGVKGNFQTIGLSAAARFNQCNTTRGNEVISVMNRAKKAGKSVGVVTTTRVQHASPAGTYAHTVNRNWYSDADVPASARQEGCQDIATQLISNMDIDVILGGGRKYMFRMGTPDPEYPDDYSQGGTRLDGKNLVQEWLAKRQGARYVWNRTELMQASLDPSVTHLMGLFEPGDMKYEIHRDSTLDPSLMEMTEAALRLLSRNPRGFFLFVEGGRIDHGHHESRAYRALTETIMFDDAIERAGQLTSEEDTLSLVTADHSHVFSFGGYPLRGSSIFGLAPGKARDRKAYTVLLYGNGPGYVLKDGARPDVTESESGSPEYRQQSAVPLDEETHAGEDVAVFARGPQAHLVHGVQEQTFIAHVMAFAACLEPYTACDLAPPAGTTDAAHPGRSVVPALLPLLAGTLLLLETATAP
Sequence of Cytochrome P450 2C9 (P11712 whole entry): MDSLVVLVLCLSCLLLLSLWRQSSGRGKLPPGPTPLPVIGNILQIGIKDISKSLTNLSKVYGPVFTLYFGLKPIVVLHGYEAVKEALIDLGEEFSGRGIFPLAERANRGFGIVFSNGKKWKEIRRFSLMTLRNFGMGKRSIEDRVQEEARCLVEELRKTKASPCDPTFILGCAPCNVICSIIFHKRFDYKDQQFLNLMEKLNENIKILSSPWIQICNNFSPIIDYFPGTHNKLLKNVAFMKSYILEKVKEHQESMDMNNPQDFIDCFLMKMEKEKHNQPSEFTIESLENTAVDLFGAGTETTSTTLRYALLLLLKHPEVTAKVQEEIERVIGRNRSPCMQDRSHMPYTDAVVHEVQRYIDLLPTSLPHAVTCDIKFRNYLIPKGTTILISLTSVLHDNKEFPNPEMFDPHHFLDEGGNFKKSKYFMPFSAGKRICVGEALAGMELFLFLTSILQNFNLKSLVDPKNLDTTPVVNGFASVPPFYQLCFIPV

O=C(/C=C/c1ccccc1)Nc1scc(-c2ccccc2)c1C(=O)O
IC50 [1]: 7.9 µM (active)

O=C(Nc1c2c(nn1-c1ccc(F)cc1)C[S+]([O-])C2)C12CC3CC(CC(C3)C1)C2 (centres undefined)
IC50 [2]: > 100 µM (active)

O=C(Nc1ccc(-c2cc3ccccc3oc2=O)c(Cl)c1)c1cccnc1
IC50 [3]: > 39.8 µM (not active) | IC50 [4]: > 39.8 µM (not active) | AC50 (Cytochrome P450 2C19 [5]): inconclusive | IC50 [6]: 17.9 µM (inactive) | AC50 (Cytochrome P450 2C9): inconclusive

CC(=O)c1ccc(C2C=CC(Oc3ccc(-c4ccccc4)cc3)C(CO)O2)cc1 (centres undefined)
AC50 (Cytochrome P450 2C19 [7]): 0.794 µM (inconclusive)

O=C(CSc1nnnn1-c1ccc(F)cc1)c1ccc(O)c(O)c1
IC50 [8]: 2.16 µM (active) | IC50 [9]: 1.89 µM (active) | IC50 [10]: 5.98 µM (active) | IC50 [11]: 80.6 µM (active)

O=C(NNC(=O)c1cc(OCC(F)(F)F)ccc1OCC(F)(F)F)c1cccc(C(F)(F)F)c1
CC50 [12]: > 40 µM (active) | CC50 [13]: > 40 µM (active)

CO[C@H]1CN(C)C(=O)c2cc(NC(=O)Nc3cc(Cl)cc(Cl)c3)ccc2OC[C@H](C)NC[C@@H]1C
AC50 [14]: 16.9 µM (active) | AC50 [15]: > 52 µM (inactive) | AC50 [16]: > 70 µM (inactive)

O=C(NCCN1CCC2(CC1)C(=O)NCN2Cc1cccnc1)c1cc2ccccc2[nH]1
IC50 (Phospholipase D2 [17]): 0.05 µM (active) | IC50 (Phospholipase D2 [18]): 0.94 µM (active) | IC50 (Phospholipase D1 [19]): 3.59 µM (active) | IC50 (Phospholipase D1 [20]): 20 µM (active)

O=C(c1ccccc1F)N1CC(=O)N2[C@H](CO)[C@H](c3ccc(-c4cccnc4)cc3)[C@@H]2C1
AC50 [21]: > 39 µM (inactive)

COCc1nc2ccccc2n1CCOc1ccc(C(C)(C)C)cc1
AC50 [22]: 52.3 µM (active) | AC50 (cells): 34 µM (active)

CC1=C(/C=C/C(C)=C/C=C/C(C)=C/C(=O)Nc2ccc(O)cc2)C(C)(C)CCC1 [FENRETINIDE]
CC50 [23]: 14.4 µM (active) | AC50 [24]: 1.04 µM (active) | IC50 [25]: 4.85 µM (active) | IC50 [26]: 1.72 µM (active) | IC50 [27]: 5.3 µM (inactive) | IC50 [28]: 6.69 µM (inactive) | IC50 [29]: 3.24 µM (active) | IC50 [30]: 2.12 µM (active) | IC50 [31]: 9.49 µM (inactive) | IC50 [32]: 4.95 µM (active)
